The results in this text go back to publication PMC6152277, “Synthesis and Evaluation of New Quinoxaline Derivatives of Dehydroabietic Acid as Potential Antitumor Agents” (Molecules : A Journal of Synthetic Chemistry and Natural …, 2017).

Data set [1] relates to human breast cancer cell line (MCF-7). Description: MTT cytotoxic assay, MCF-7. The note with it: MCF7, 48 h exposure. The class given is cell-based. As for the experimental part: (§1) All the compounds (1–3, 4a–o) were evaluated for their in vitro cytotoxic activity against three cancer cell lines including human breast cancer cell line (MCF-7), human hepatocarcinoma cell line (SMMC-7721), human cervical carcinoma cell line (HeLa), and a noncancerous human hepatocyte cell line (LO2) using the MTT assay method. An anticancer drug etoposide (VP-16) was co-assayed as the positive control. The results of the test compounds shown as IC50 values (concentration required to inhibit tumor cell proliferation by 50%), are listed in Table 1.
(§2) The in vitro cytotoxic activities of the quinoxaline derivatives of DAA were evaluated against a human breast cancer cell line (MCF-7), human hepatocarcinoma cell line (SMMC-7721), human cervical carcinoma cell line (HeLa) and noncancerous human hepatocyte cells (LO2) via the MTT colorimetric method. Briefly, different tumor cells were grown in DMEM supplemented with 10% fetal bovine serum, penicillin (100 U/mL), and streptomycin (50 μg/mL). Cells were harvested at the log phase of growth and seeded in 96-well plates (100 μL/well at a density of 2 × 10^5 cells/mL). After 24 h of incubation at 37 °C and 5% CO2 to allow for cell attachment, cultures were exposed to various concentrations of the isolated compounds for 48 h. Finally, the MTT solution (2.5 mg/mL in PBS) was added (40 μL/well). Plates were further incubated for 4 h at 37 °C, and the formazan crystals formed were dissolved by adding 150 μL/well of DMSO. Absorption at 570 nm was measured with an ELISA plate reader. The results were expressed as IC50 values with standard deviations, which were defined as the concentrations at which a 50% survival of the cells was discerned. Etoposide (VP-16) was co-assayed as the positive control.
(In general: Formazan colour is commonly taken as a measure of viable cells.)

Data set [2] has as its system human hepatocarcinoma cell line (SMMC-7721). Kind of data set: MTT cytotoxic assay, SMMC-7721. The class given is cell-based. The note with it: 48 h exposure. The method, then: as §1, §2
In data set [3] the test system is human cervical carcinoma cell line (HeLa). Description: MTT cytotoxic assay, HeLa. The class given is cell-based. As to conditions: 48 h exposure. The method, then:
as §1, §2

Data set [4] deals with noncancerous human hepatocyte cells (LO2). Description: MTT cytotoxic assay, LO2. As to conditions: 48 h exposure, noncancerous hepatocytes. The class given is cell-based. As for the experimental part: as §1, §2
Data set [5] concerns three cancer cell lines (MCF-7, SMMC-7721, HeLa). Description: MTT cytotoxic assay, summary statements over the three cancer cell lines. The data set is classed as cell-based, human. The note with it: for cytotoxic activity against the three cancer cell lines (in words): MCF-7, SMMC-7721, HeLa; for IC50: Homo sapiens, at least one of MCF-7, SMMC-7721, HeLa, strong cytotoxicity, read-out: IC50 against at least one cancer cell line. As for the experimental part:
as §1, §2

Where only a bound is given, the exact number is not on record here.

Usually IC50 stands for the concentration needed to halve the response being measured.

Take `CC(C)c1ccc2c(c1)CC[C@H]1[C@](C)(C(=O)O)CCC[C@]21C` [Compound 1, Dehydroabietic acid]: the IC50 in data set [1], in data set [2], in data set [3] and in data set [4] was above 50 µM each time.
Consider `COC(=O)[C@]1(C)CCC[C@]2(C)c3cc(Br)c(N)c(N)c3CCC12` (stereo partly shown) [Compound 2], for which the IC50 in data set [1] was above 50 µM; in data set [2] it was above 50 µM; in data set [3], 43.3 ± 3.26 µM; in data set [4], above 50 µM. Also, the “cytotoxicity to HeLa and/or SMMC-7721 cell lines (in words)” value in data set [5] was “mild cytotoxicity”.
For the compound `COC(=O)[C@]1(C)CCC[C@]2(C)c3cc(Br)c4nc(CBr)c(CBr)nc4c3CCC12` (stereo partly shown) [Compound 3], the IC50 in data set [1] is above 50 µM; in data set [2], 45.8 ± 5.28 µM; in data set [3] it was 37.7 ± 3.75 µM; in data set [4], above 50 µM. The “cytotoxicity to HeLa and/or SMMC-7721 cell lines (in words)” value in data set [5] is listed as “mild cytotoxicity”.
Consider `COC(=O)[C@]1(C)CCC[C@]2(C)c3cc(Br)c4nc(CN(C)C)c(CN(C)C)nc4c3CCC12` (stereo partly shown) [Compound 4a, Methyl 12-bromo-2′,3′-bis((dimethylamino)methyl)-13,14-pyrazinyldeisopropyl-dehydroabietate], for which the IC50 in data set [1] was found to be 2.36 ± 0.29 µM; in data set [2] it was 1.65 ± 0.22 µM; in data set [3] it was 2.08 ± 0.43 µM; in data set [4], 15.7 ± 0.65 µM.
The matching figures for `CCCN(CCC)Cc1nc2c(Br)cc3c(c2nc1CN(CCC)CCC)CCC1[C@](C)(C(=O)OC)CCC[C@]31C` (stereo partly shown) [Compound 4c, Methyl 12-bromo-2′,3′-bis((dipropylamino)methyl)-13,14-pyrazinyldeisopropyl-dehydroabietate]: 21 ± 1.27 µM, 11 ± 0.58 µM, 8.67 ± 0.65 µM and above 50 µM.
In the case of `CCCCN(CCCC)Cc1nc2c(Br)cc3c(c2nc1CN(CCCC)CCCC)CCC1[C@](C)(C(=O)OC)CCC[C@]31C` (stereo partly shown) [Compound 4d, Methyl 12-bromo-2′,3′-bis((dibutylamino)methyl)-13,14-pyrazinyldeisopropyl-dehydroabietate], the 50% inhibitory concentration (IC50) in data set [1] is 28.1 ± 0.92 µM; in data set [2], 32.7 ± 2.69 µM; in data set [3] it was 25.3 ± 3.01 µM; in data set [4] it was above 50 µM. Besides, the “cytotoxic activity against the three cancer cell lines (in words)” value (“cytotoxic activity” below) in data set [5] was “weak activity”.
The matching figures for `COC(=O)[C@]1(C)CCC[C@]2(C)c3cc(Br)c4nc(CN5CCCC5)c(CN5CCCC5)nc4c3CCC12` (stereo partly shown) [Compound 4e, Methyl 12-bromo-2′,3′-bis(pyrrolidin-1-ylmethyl)-13,14-pyrazinyldeisopropyl-dehydroabietate]: 20.4 ± 1.51 µM, 18.6 ± 2.37 µM, 12.8 ± 1.26 µM, above 50 µM and “moderate cytotoxic activity”.
In the case of `COC(=O)[C@]1(C)CCC[C@]2(C)c3cc(Br)c4nc(CN5CCCCC5)c(CN5CCCCC5)nc4c3CCC12` (stereo partly shown) [Compound 4f, Methyl 12-bromo-2′,3′-bis(piperidin-1-ylmethyl)-13,14-pyrazinyldeisopropyl-dehydroabietate], the IC50 in data set [1] was 8.95 ± 0.63 µM; in data set [2] it was 7.71 ± 0.82 µM; in data set [3], 5.98 ± 0.37 µM; in data set [4], 42.2 ± 2.78 µM; in data set [5], below 10 µM.
As for `COC(=O)[C@]1(C)CCC[C@]2(C)c3cc(Br)c4nc(CN5CCCCCC5)c(CN5CCCCCC5)nc4c3CCC12` (stereo partly shown) [Compound 4g, Methyl 2′,3′-bis(azepan-1-ylmethyl)-12-bromo-13,14-pyrazinyldeisopropyl-dehydroabietate], the IC50 was above 50 µM in data set [1], 27.9 ± 2.91 µM in data set [2], 32 ± 4.21 µM in data set [3] and above 50 µM in data set [4]. Also, the “cytotoxic activity” value in data set [5] was “weak activity”.
For `COC(=O)[C@]1(C)CCC[C@]2(C)c3cc(Br)c4nc(CN5CCOCC5)c(CN5CCOCC5)nc4c3CCC12` (stereo partly shown) [Compound 4h, Methyl 12-bromo-2′,3′-bis(morpholinomethyl)-13,14-pyrazinyldeisopropyl-dehydroabietate], the IC50 came to 12.3 ± 1.03 µM in data set [1], 16.3 ± 1.85 µM in data set [2], 9.67 ± 1.13 µM in data set [3] and 36.6 ± 3.12 µM in data set [4].
For `COC(=O)[C@]1(C)CCC[C@]2(C)c3cc(Br)c4nc(CN5CCNCC5)c(CN5CCNCC5)nc4c3CCC12` (stereo partly shown) [Compound 4i, Methyl 12-bromo-2′,3′-bis(piperazin-1-ylmethyl)-13,14-pyrazinyldeisopropyl-dehydroabietate], the IC50 in data set [1] is 5.89 ± 0.56 µM; in data set [2], 4.32 ± 0.64 µM; in data set [3], 5.05 ± 0.72 µM; in data set [4] it was 21.9 ± 2.7 µM; in data set [5], below 10 µM.
In the case of `COC(=O)[C@]1(C)CCC[C@]2(C)c3cc(Br)c4nc(CN5CCN(C)CC5)c(CN5CCN(C)CC5)nc4c3CCC12` (stereo partly shown) [Compound 4j, Methyl 12-bromo-2′,3′-bis((4-methylpiperazin-1-yl)methyl)-13,14-pyrazinyl-deisopropyl-dehydroabietate], the IC50 in data set [1] was 12.2 ± 0.75 µM; in data set [2], 8.03 ± 0.7 µM; in data set [3] it was 6.62 ± 0.59 µM; in data set [4] it was 29.5 ± 3.61 µM; in data set [5] it was below 10 µM.
Consider `CCN1CCN(Cc2nc3c(Br)cc4c(c3nc2CN2CCN(CC)CC2)CCC2[C@](C)(C(=O)OC)CCC[C@]42C)CC1` (stereo partly shown) [Compound 4k, Methyl 12-bromo-2′,3′-bis((4-ethylpiperazin-1-yl)methyl)-13,14-pyrazinyl-deisopropyl-dehydroabietate], for which the concentration for half-maximal inhibition (IC50) is 38.7 ± 2.87 µM in data set [1], 26.4 ± 3.73 µM in data set [2], 13.5 ± 2.21 µM in data set [3] and above 50 µM in data set [4]. In data set [5], the “cytotoxic activity” value is “moderate cytotoxic activity”.
The matching figures for `COC(=O)[C@]1(C)CCC[C@]2(C)c3cc(Br)c4nc(Cn5ccnc5)c(Cn5ccnc5)nc4c3CCC12` (stereo partly shown) [Compound 4l, Methyl 12-bromo-2′,3′-bis((1H-imidazol-1-yl)methyl)-13,14-pyrazinyl-deisopropyl-dehydroabietate]: 22.8 ± 3.21 µM, 15.3 ± 2.06 µM, 12.7 ± 1.35 µM, above 50 µM and “moderate cytotoxic activity”.
Take `COC(=O)[C@]1(C)CCC[C@]2(C)c3cc(Br)c4nc(Cn5ccnn5)c(Cn5ccnn5)nc4c3CCC12` (stereo partly shown) [Compound 4m, Methyl 12-bromo-2′,3′-bis((1H-1,2,3-triazol-1-yl)methyl)-13,14-pyrazinyl-deisopropyl-dehydroabietate]: the IC50 is 3.73 ± 0.62 µM in data set [1]; 4.66 ± 0.42 µM in data set [2]; 2.18 ± 0.37 µM in data set [3]; 18.4 ± 1.73 µM in data set [4]; below 10 µM in data set [5].
In the case of `COC(=O)[C@]1(C)CCC[C@]2(C)c3cc(Br)c4nc(Cn5cnnn5)c(Cn5cnnn5)nc4c3CCC12` (stereo partly shown) [Compound 4n, Methyl 12-bromo-2′,3′-bis((1H-tetrazol-1-yl)methyl)-13,14-pyrazinyl-deisopropyl-dehydroabietate], the IC50 in data set [1] was 15.8 ± 0.81 µM; in data set [2] it was 10.9 ± 1.68 µM; in data set [3], 13.3 ± 2.71 µM; in data set [4], above 50 µM. The “cytotoxic activity” value in data set [5] was “moderate cytotoxic activity”.
On the same counts, the results for `COC(=O)[C@]1(C)CCC[C@]2(C)c3cc(Br)c4nc(Cn5ncnn5)c(Cn5ncnn5)nc4c3CCC12` (stereo partly shown) [Compound 4o, Methyl 12-bromo-2′, 3′-bis((2H-tetrazol-2-yl)methyl)-13,14-pyrazinyl-deisopropyl-dehydroabietate] are 24.4 ± 1.69 µM, 16.9 ± 1.95 µM, 20.5 ± 3.12 µM, above 50 µM and “moderate cytotoxic activity”.
On to `COc1cc([C@@H]2c3cc4c(cc3[C@@H](O[C@@H]3O[C@@H]5CO[C@@H](C)O[C@H]5[C@H](O)[C@H]3O)[C@H]3COC(=O)[C@H]23)OCO4)cc(OC)c1O` [Etoposide, reference compound], for which the IC50 in data set [1] was 0.73 ± 0.07 µM; in data set [2] it was 0.69 ± 0.18 µM; in data set [3], 0.87 ± 0.16 µM; in data set [4], 8.89 ± 0.38 µM.
